From US12642799B2, “Composition and method for treating COVID-19” (University of South Florida, priority 2021, dated 2026)

Experiments:
[1] = test system: SARS CoV-2 (variants) infected Calu3 cells; type: cell-based
[2] = test system: TNFα, IL-6; type: cell-based

Compound | inhibition of viral replication (SARS CoV2 N protein mRNA) [1] | inhibition of inflammatory cytokine production (TNFα, IL-6 mRNA) [2]
N[C@@H](CC(=O)N1CCn2c(nnc2C(F)(F)F)C1)Cc1cc(F)c(F)cc1F [sitagliptin] | equally effective | equally effective
sitagliptin monohydrate phosphate | equally effective | equally effective
